From ChEMBL document CHEMBL1157123, “First identification of xanthone sulfonamides as potent acyl-CoA:cholesterol acyltransferase (ACAT) inhibitors” (Bioorg Med Chem Lett, 2010)
Calls of active or inactive are those of the source. No cut-off for these calls is given here.

Target: T1, Sterol O-acyltransferase 1 (Homo sapiens) (UniProt P35610)
T1 sequence (whole entry): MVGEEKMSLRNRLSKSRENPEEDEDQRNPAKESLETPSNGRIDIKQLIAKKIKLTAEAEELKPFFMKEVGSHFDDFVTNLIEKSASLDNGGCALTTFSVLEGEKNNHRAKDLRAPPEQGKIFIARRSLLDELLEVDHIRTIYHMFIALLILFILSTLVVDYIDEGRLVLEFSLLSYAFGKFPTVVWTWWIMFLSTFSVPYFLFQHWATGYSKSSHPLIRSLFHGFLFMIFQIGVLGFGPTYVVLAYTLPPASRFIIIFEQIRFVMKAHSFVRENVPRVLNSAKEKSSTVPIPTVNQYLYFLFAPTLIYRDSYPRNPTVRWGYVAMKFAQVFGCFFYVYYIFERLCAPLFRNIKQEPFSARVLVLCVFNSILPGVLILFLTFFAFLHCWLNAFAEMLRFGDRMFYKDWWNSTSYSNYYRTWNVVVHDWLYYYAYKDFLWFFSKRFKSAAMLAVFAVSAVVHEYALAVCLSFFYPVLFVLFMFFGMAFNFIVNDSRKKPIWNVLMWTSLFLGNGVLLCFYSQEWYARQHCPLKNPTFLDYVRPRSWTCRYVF
Experiment: Inhibition of ACAT at 10 ug/ml

Structure (SMILES) | inhibition
COc1cc2oc3c(S(=O)(=O)N4CCCCC4)c(OC)cc(OC)c3c(=O)c2cc1OC | 10.5%
COc1cc2oc3c(S(=O)(=O)N4CCN(c5ccccn5)CC4)c(OC)cc(OC)c3c(=O)c2cc1OC | 43.6%
COc1cc2oc3c(S(=O)(=O)NC(c4ccccc4)c4ccccc4)c(OC)cc(OC)c3c(=O)c2cc1OC | inactive
CCOC(=O)CN(C)S(=O)(=O)c1c(OC)cc(OC)c2c(=O)c3cc(OC)c(OC)cc3oc12 | 16.8%
COc1cc2oc3c(S(=O)(=O)NC4CC4)c(OC)cc(OC)c3c(=O)c2cc1OC | inactive
CCN(CC)C(=O)C1CCCN(S(=O)(=O)c2c(OC)cc(OC)c3c(=O)c4cc(OC)c(OC)cc4oc23)C1 (centres undefined) | 12.6%
COc1cc2oc3c(S(=O)(=O)N4CCN(C)CC4)c(OC)cc(OC)c3c(=O)c2cc1OC | 14.5%
CCOC(=O)C1CCCN(S(=O)(=O)c2c(OC)cc(OC)c3c(=O)c4cc(OC)c(OC)cc4oc23)C1 (centres undefined) | 7.99%
COc1cc2oc3c(S(=O)(=O)N4CCN(c5cccc(C)c5)CC4)c(OC)cc(OC)c3c(=O)c2cc1OC | 64.8%
COc1ccc(CCCN(C)S(=O)(=O)c2c(OC)cc(OC)c3c(=O)c4cc(OC)c(OC)cc4oc23)cc1OC | 30.1%
CCCCCCCCCC[Si](C)(C)CCC(=O)NC(Cc1ccc(C)cc1)c1ccccc1 (centres undefined) | 55%
COc1cc2oc3c(S(=O)(=O)N4C[C@@H](C)O[C@@H](C)C4)c(OC)cc(OC)c3c(=O)c2cc1OC | 8.84%
COc1cc2oc3c(S(=O)(=O)N4CC=C(c5ccccc5)CC4)c(OC)cc(OC)c3c(=O)c2cc1OC | 51.3%
COC(=O)CNS(=O)(=O)c1c(OC)cc(OC)c2c(=O)c3cc(OC)c(OC)cc3oc12 | 5.13%
COc1ccc(N2CCN(S(=O)(=O)c3c(OC)cc(OC)c4c(=O)c5cc(OC)c(OC)cc5oc34)CC2)cc1 | 36.9%
COc1cc2oc3c(S(=O)(=O)N4CCC(N(C)C)C4)c(OC)cc(OC)c3c(=O)c2cc1OC (centres undefined) | 21%

Second part, the compound after the results:

inhibition | Structure (SMILES)
10.8% | COc1cc2oc3c(S(=O)(=O)NCC(C)c4ccccc4)c(OC)cc(OC)c3c(=O)c2cc1OC (centres undefined)
inactive | CNS(=O)(=O)c1c(OC)cc(OC)c2c(=O)c3cc(OC)c(OC)cc3oc12
11.9% | COc1cc2oc3c(S(=O)(=O)NCCc4ccc(C)c(C)c4)c(OC)cc(OC)c3c(=O)c2cc1OC
16.8% | COc1cc2oc3c(S(=O)(=O)NOCc4ccccc4)c(OC)cc(OC)c3c(=O)c2cc1OC
10.2% | COc1cc2oc3c(S(=O)(=O)NCc4ccc(F)cc4)c(OC)cc(OC)c3c(=O)c2cc1OC
15.8% | COc1cc2oc3c(S(=O)(=O)NCc4cccc(Cl)c4)c(OC)cc(OC)c3c(=O)c2cc1OC
inactive | CCCNS(=O)(=O)c1c(OC)cc(OC)c2c(=O)c3cc(OC)c(OC)cc3oc12
25% | COc1cc2oc3c(S(=O)(=O)NCc4ccc5ccccc5c4)c(OC)cc(OC)c3c(=O)c2cc1OC
